In US20230203058A1, “MACROCYCLIC DIAMINE DERIVATIVES AS ENT INHIBITORS FOR THE TREATMENT OF CANCERS, AND COMBINATION THEREOF WITH ADENOSINE RECEPTOR ANTAGONISTS” (ITEOS BELGIUM SA, priority 2020, published 2023):
Read-outs that look alike come from different tables or passages of the source.

What was measured:
[1] = tested on: stimulated primary human T cells; assay: T cell proliferation assay (rescue of proliferation in presence of ATP, CFSE dilution); format: cell-based; details: 100 uM ATP
Experimental: The aim of this study was to determine the potency of equilibrative nucleoside transporter 1 (ENT1) inhibitors to rescue proliferation by stimulated primary human T cells incubated in the presence of 100 uM Adenosine triphosphate (ATP), in baseline conditions (condition A) or in the presence of various proteins known to bind small molecules (condition B). Condition A: X-VIVO15 Condition B: X-VIVO15, 2% Human Serum Albumine (HSA) and 0,1% α-1-Acid Glycoprotein (AAG)
Cryopreserved purified human CD3+ T cells were thawed and washed twice with RPMI1640 medium, UltraGlutamine containing 10% hiFBS.
Cells were suspended in PBS containing 10% hiFBS. Cells were stained with CFSE by adding 2 µM solution in PBS, to get a final 1 µM CFSE solution. Cells were incubated while rotating for 5 minutes. Reaction was stopped by adding PBS with 10% FBS and cells were centrifuged for 5 minutes at 1500 rpm.
Cells were resuspended at 1.6 ×10^6 cells/mL, either in X-VIVO15 medium or in 4% Human Serum Albumin and 0,2% α-1-Acid Glycoprotein. 50 µL of cell suspension (8×10^4 T cells) was added to wells of sterile round-bottom 96-well plates. Cells were activated by adding 50 µL of anti-CD3 anti-CD28 coated microbeads, suspended either in XVIVO-15 medium or in 4% HSA and 0,2% α-1-Acid Glycoprotein, at a ratio of one microbead per two cells. Serial dilutions of the ENT1 inhibitors were prepared in X-VIVO15 from 10 mM stock solutions in DMSO, and 50 µL was added to the wells. ATP powder was diluted in X-VIVO15, and 50 µL of this compound was added to the wells to reach a final assay concentration of 100 µM. Final volume of 200 µL. The experiments were also performed in 384 well plates - all volumes reduced by a factor of 4 (12,5 µL) with a final volume of 50 µL. Experiments were performed in duplicate. The cells were placed in a 37° C. humidified tissue culture incubator with 5% CO2 for 72 hours for 96 well plates, 96 hours for 384 well plates. After 72 or 96 hours, proliferation was measured determined by CFSE dilution via flow cytometry.

human ENT1 = biological target: T1, human ENT1 (Homo sapiens, UniProt Q99808); assay: ENT1 binding assay (competition with Sahenta-DY647 on JAR cells); design: JAR cells expressing ENT1 were bought from ATCC® (HTB-144TM); host or cells: JAR cells (human choriocarcinoma line; whole cells); details: competition with Sahenta-DY647 100 nM, 4° C.
T1 sequence (Q99808 1-456): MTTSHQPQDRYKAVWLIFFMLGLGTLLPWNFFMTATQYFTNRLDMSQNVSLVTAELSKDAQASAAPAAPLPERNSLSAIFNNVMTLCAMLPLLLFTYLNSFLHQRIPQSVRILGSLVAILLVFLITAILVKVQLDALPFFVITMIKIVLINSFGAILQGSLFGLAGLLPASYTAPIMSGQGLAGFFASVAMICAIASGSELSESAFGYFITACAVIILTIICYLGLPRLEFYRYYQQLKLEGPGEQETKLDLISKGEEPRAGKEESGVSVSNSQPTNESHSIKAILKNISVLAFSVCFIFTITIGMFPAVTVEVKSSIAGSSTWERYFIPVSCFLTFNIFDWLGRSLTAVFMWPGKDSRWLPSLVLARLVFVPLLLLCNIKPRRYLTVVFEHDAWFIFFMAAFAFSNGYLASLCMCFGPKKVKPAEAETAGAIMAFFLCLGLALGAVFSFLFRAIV
In short: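 Competition binding on intact JAR cells (50000 per well) in HBSS with 10 mM Hepes and 0.1% BSA. Cells pre-incubated with compound 30 min at 4 °C, then Sahenta-DY647 added at its IC90 (100 nM) for another 30 min at 4 °C; after washing, fluorescence read at Ex 630/Em 670 nm.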

[2] = Condition A: X-VIVO15, read-out: T Cell proliferation (Condition A) IC50
[3] = Condition B: X-VIVO15, 2% HSA and 0,1% AAG, read-out: (2) T Cell proliferation (Condition B) IC50

| Structure (SMILES) | IC50 [1, 2] | IC50 [1, 3] | IC50 (human ENT1) |
| --- | --- | --- | --- |
| COc1cc2cc(c1OC)OCCCC(OC(=O)c1cccc(Oc3ccccc3)c1)CCN1CCCN(CCCOC2=O)CC1 (stereo not drawn) [Compound 46, 74,75-dimethoxy-6-oxo-5,8-dioxa-1(1,4)-diazepana-7(1,3)-benzenacyclotetradecaphane-12-yl 3-phenoxybenzoate] | 1 to 20 nM | 20 to 500 nM | 20 to 500 nM |
| COc1cc2cc(c1OC)OCCCC(OC(=O)c1cnccn1)CCN1CCCN(CCCOC2=O)CC1 (stereo not drawn) [Compound 54, 74,75-dimethoxy-6-oxo-5,8-dioxa-1(1,4)-diazepana-7(1,3)-benzenacyclotetradecaphane-12-yl pyrazine-2-carboxylate] | 20 to 500 nM | > 500 nM | 1 to 20 nM |
| COc1cc2cc(c1OC)OCCCC(OC(=O)c1c[nH]nn1)CCN1CCCN(CCCOC2=O)CC1 (stereo not drawn) [Compound 58, 74,75-dimethoxy-6-oxo-5,8-dioxa-1(1,4)-diazepana-7(1,3)-benzenacyclotetradecaphane-12-yl 1 H-1,2,3-triazole-4-carboxylate] | 1 to 20 nM | > 500 nM | 1 to 20 nM |
| COc1cc2cc(c1OC)OCCCC(OC(C)=O)CCN1CCCN(CCCOC2=O)CC1 (stereo not drawn) [Compound 59, 74,75-dimethoxy-6-oxo-5,8-dioxa-1(1,4)-diazepana-7(1,3)-benzenacyclotetradecaphane-12-yl acetate] | 1 to 20 nM | > 500 nM | 1 to 20 nM |
| COc1cc2cc(c1OC)OCCCC(OC(=O)C1CC1)CCN1CCCN(CCCOC2=O)CC1 (stereo not drawn) [Compound 60, 74,75-dimethoxy-6-oxo-5,8-dioxa-1(1,4)-diazepana-7(1,3)-benzenacyclotetradecaphane-12-yl cyclopropanecarboxylate] | 1 to 20 nM | > 500 nM | 1 to 20 nM |
| COCCC(=O)OC1CCCOc2cc(cc(OC)c2OC)C(=O)OCCCN2CCCN(CC1)CC2 (stereo not drawn) [Compound 93, 74,75-dimethoxy-6-oxo-5,8-dioxa-1(1,4)-diazepana-7(1,3)-benzenacyclotetradecaphane-12-yl 3-methoxypropanoate] | 1 to 20 nM | > 500 nM | 1 to 20 nM |
| COc1cc2cc(c1OC)OCCCC(OC(=O)CCn1cccn1)CCN1CCCN(CCCOC2=O)CC1 (stereo not drawn) [Compound 94, 74,75-dimethoxy-6-oxo-5,8-dioxa-1 (1,4)-diazepana-7(1,3)-benzenacyclotetradecaphane-12-yl 3-(1H-pyrazol-1-yl)propanoate] | 1 to 20 nM | > 500 nM | 1 to 20 nM |
| COc1cc2cc(c1OC)OCCCC(OC(=O)CCCC#N)CCN1CCCN(CCCOC2=O)CC1 (stereo not drawn) [Compound 96, 74,75-dimethoxy-6-oxo-5,8-dioxa-1 (1,4)-diazepana-7(1,3)-benzenacyclotetradecaphane-12-yl 4-cyanobutanoate] | 1 to 20 nM | > 500 nM | 1 to 20 nM |
| COc1cc2cc(c1OC)OCCCC(OC(=O)CCCNC(C)=O)CCN1CCCN(CCCOC2=O)CC1 (stereo not drawn) [Compound 97, 74,75-dimethoxy-6-oxo-5,8-dioxa-1(1,4)-diazepana-7(1,3)-benzenacyclotetradecaphane-12-yl 4-acetamidobutanoate] | < 1 nM | > 500 nM | 1 to 20 nM |
| COc1cc2cc(c1OC)OCCCC(OC(=O)CCC(=O)N(C)C)CCN1CCCN(CCCOC2=O)CC1 (stereo not drawn) [Compound 99, 74,75-dimethoxy-6-oxo-5,8-dioxa-1(1,4)-diazepana-7(1,3)-benzenacyclotetradecaphane-12-yl 4-(dimethylamino)-4-oxobutanoate] | < 1 nM | 20 to 500 nM | 1 to 20 nM |
| COc1cc2cc(c1OC)OCCCC(OC(=O)CCNC(C)=O)CCN1CCCN(CCCOC2=O)CC1 (stereo not drawn) [Compound 100, 74,75-dimethoxy-6-oxo-5,8-dioxa-1(1,4)-diazepana-7(1,3)-benzenacyclotetradecaphane-12-yl 3-acetamidopropanoate] | 1 to 20 nM | > 500 nM | 1 to 20 nM |
